From US8969360B2, “Compounds useful as inhibitors of ATR kinase” (Vertex Pharmaceuticals Incorporated, priority 2013, dated 2015)
pKi: −log10 of the molar value.

Assays:
ATR kinase = target: T1, ATR kinase (Homo sapiens, UniProt Q13535); experiment: ATR Inhibition Assay (radioactive-phosphate incorporation); assay type: biochemical; conditions: Ki(app); 5 nM full-length ATR, 10 μM ATP, 800 μM target peptide, 25° C.
T1 construct: Assays were carried out at 25° C. in the presence of 5 nM full-length ATR
Experimental: Compounds were screened for their ability to inhibit ATR kinase using a radioactive-phosphate incorporation assay. Assays were carried out in a mixture of 50 mM Tris/HCl (pH 7.5), 10 mM MgCl2 and 1 mM DTT. Final substrate concentrations were 10 μM [γ-33P]ATP (3 mCi 33P ATP/mmol ATP, Perkin Elmer) and 800 μM target peptide (ASELPASQPQPFSAKKK (SEQ. ID NO: 1)).
Assays were carried out at 25° C. in the presence of 5 nM full-length ATR. An assay stock buffer solution was prepared containing all of the reagents listed above, with the exception of ATP and the test compound of interest. 13.5 μL of the stock solution was placed in a 96 well plate followed by addition of 2 μL of DMSO stock containing serial dilutions of the test compound (typically starting from a final concentration of 15 μM with 3-fold serial dilutions) in duplicate (final DMSO concentration 7%). The plate was pre-incubated for 10 minutes at 25° C. and the reaction initiated by addition of 15 μL [γ-33P]ATP (final concentration 10 μM).
The reaction was stopped after […] by the addition of 30 μL, 0.1M phosphoric acid containing 2 mM ATP. A multiscreen phosphocellulose filter 96-well plate (Millipore, Cat no. MAPHN0B50) was pretreated with 100 μL 0.2M phosphoric acid prior to the addition of 45 μL of the stopped assay mixture. The plate was washed with 5×200 μL 0.2M phosphoric acid. After drying, 100 μL Optiphase ‘SuperMix’ liquid scintillation cocktail (Perkin Elmer) was added to the well prior to scintillation counting (1450 Microbeta Liquid Scintillation Counter, Wallac).
After removing mean background values for all of the data points, Ki(app) data were calculated from non-linear regression analysis of the initial rate data using the Prism software package (GraphPad Prism version 3.0cx for Macintosh, GraphPad Software, San Diego Calif., USA).
Compounds with a Ki value of <0.01 μM are marked with “+++.” Compounds with a Ki value >0.01 μM but <1 μM are marked with “++.” Compounds with a Ki value >1 μM but <5 μM are marked with “+.”

[1] = tested on: HCT116 colorectal cancer cells; experiment: Cisplatin Sensitization Assay (96 h cell viability MTS); assay type: cell-based; conditions: concentration of compound required to reduce the IC50 of Cisplatin alone by at least 3-fold; HCT116, 96 h MTS
Experimental: Compounds can be screened for their ability to sensitize HCT116 colorectal cancer cells to Cisplatin using a 96 h cell viability (MTS) assay. […] Compounds and Cisplatin are then both added simultaneously to the cell media in 2-fold serial dilutions from a top final concentration of 10 μM as a full matrix of concentrations in a final cell volume of 200 μl, and the cells are then incubated at 37° C. in 5% CO2. After 96 h, 40 μl of MTS reagent (Promega G358a) is added to each well and the cells are incubated for 1 h at 37° C. in 5% CO2. Finally, absorbance is measured at 490 nm using a SpectraMax Plus 384 reader (Molecular Devices) and the concentration of compound required to reduce the IC50 of Cisplatin alone by at least 3-fold (to 1 decimal place) can be reported.
Compounds with a Cisplatin sensitization value of <0.02 μM are marked with “+++.” Compounds with a Cisplatin sensitization value>0.02 μM but <0.2 μM are marked with “++.” Compounds with a Cisplatin sensitization value >0.2 μM but <5 μM are marked with “+.”

T1 sequence (Q13535 whole entry): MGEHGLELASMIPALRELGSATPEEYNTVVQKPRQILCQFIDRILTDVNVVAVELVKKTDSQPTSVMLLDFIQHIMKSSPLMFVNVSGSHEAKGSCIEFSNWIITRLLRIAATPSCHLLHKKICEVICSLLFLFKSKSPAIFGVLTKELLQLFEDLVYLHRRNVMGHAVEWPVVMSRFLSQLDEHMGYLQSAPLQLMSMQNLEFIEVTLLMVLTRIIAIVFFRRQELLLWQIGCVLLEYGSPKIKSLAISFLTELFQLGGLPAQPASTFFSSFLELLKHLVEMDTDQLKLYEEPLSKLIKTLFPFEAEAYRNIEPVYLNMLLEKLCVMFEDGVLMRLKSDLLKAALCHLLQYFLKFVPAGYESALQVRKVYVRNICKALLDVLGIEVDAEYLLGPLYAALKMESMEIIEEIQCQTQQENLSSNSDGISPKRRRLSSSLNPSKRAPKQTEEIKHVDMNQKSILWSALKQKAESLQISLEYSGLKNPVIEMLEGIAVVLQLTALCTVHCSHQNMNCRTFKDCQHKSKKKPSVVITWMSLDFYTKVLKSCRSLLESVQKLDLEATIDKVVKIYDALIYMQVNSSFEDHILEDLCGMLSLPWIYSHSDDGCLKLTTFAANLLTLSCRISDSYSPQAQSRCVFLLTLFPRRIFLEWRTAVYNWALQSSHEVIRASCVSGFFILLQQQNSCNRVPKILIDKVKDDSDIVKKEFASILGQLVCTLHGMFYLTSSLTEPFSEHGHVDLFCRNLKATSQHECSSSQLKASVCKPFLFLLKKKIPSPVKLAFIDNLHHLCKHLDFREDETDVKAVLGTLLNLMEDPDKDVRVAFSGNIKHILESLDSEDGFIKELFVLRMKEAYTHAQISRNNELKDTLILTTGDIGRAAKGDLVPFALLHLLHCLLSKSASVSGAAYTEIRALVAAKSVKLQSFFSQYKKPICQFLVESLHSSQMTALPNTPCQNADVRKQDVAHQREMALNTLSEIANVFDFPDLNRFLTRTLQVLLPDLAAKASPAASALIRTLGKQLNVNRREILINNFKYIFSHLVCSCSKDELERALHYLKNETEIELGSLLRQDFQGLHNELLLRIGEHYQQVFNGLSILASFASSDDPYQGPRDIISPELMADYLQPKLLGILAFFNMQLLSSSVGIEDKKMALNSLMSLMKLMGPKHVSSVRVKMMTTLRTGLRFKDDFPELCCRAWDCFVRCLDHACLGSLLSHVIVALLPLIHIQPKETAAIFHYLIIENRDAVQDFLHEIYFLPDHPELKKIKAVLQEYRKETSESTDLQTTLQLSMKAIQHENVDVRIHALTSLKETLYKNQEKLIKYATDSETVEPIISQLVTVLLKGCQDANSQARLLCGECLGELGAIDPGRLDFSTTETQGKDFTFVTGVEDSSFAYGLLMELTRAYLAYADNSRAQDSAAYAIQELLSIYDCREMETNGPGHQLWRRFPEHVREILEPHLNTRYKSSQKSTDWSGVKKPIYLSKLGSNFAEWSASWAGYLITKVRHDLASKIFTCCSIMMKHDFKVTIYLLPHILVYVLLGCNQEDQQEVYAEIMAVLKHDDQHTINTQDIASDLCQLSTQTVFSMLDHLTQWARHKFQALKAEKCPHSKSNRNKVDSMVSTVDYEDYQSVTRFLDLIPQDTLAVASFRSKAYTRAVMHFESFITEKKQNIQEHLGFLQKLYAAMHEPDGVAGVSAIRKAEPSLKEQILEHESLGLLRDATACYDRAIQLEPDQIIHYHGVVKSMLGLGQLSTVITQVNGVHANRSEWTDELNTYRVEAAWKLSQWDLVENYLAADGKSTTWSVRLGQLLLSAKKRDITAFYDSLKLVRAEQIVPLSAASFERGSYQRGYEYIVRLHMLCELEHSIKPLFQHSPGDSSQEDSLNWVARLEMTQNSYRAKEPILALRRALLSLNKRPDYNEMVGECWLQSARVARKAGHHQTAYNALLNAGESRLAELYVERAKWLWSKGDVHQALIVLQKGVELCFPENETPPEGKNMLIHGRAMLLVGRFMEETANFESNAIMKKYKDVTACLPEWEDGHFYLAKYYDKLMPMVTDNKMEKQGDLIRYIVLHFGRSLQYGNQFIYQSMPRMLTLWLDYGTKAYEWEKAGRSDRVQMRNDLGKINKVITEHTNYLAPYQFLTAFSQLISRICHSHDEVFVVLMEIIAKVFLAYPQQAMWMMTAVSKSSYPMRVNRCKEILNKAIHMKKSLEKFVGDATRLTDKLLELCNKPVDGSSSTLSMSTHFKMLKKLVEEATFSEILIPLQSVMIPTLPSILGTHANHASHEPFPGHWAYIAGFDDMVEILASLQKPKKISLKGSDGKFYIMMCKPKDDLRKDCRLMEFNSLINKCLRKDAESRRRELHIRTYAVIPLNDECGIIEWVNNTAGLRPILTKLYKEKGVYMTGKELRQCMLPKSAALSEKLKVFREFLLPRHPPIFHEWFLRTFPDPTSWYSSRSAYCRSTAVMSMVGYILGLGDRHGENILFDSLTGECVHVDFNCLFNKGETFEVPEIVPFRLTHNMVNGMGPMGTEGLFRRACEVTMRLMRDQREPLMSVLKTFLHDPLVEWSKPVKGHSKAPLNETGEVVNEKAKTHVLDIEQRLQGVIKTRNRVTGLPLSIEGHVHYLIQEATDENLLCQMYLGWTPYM

| pKi (ATR kinase) | SMILES | Synergy with Cisplatin [1] |
| --- | --- | --- |
| 6.00 to 8.00 | COc1ccncc1NC(=O)c1c(N)nn2ccc(OCCN3CCC3)nc12 [I-O-59, 2-amino-5-(2-(azetidin-1-yl)ethoxy)-N-(4-methoxypyridin-3-yl)pyrazolo[1,5-a]pyrimidine-3-carboxamide] | ++ (Compounds with a Cisplatin sensitization value>0.02 μM but <0.2 μM are marked with “++.”) |
| 6.00 to 8.00 | CN1CCC[C@@H]1COc1ccncc1NC(=O)c1c(N)nn2ccc(C(F)(F)F)nc12 [I-O-28, (R)-2-amino-N-(4-((1-methylpyrrolidin-2-yl)methoxy)pyridin-3-yl)-5-(trifluoromethyl)pyrazolo[1,5-a]pyrimidine-3-carboxamide] | ++ (Compounds with a Cisplatin sensitization value>0.02 μM but <0.2 μM are marked with “++.”) |
| 6.00 to 8.00 | Nc1nn2ccc(C(F)(F)F)nc2c1C(=O)Nc1cnccc1O[C@@H]1CCOC1 [I-O-9, (R)-2-amino-N-(4-((tetrahydrofuran-3-yl)oxy)pyridin-3-yl)-5-(trifluoromethyl)pyrazolo[1,5-a]pyrimidine-3-carboxamide] | +++ (Compounds with a Cisplatin sensitization value of <0.02 μM are marked with “+++.”) |
| 6.00 to 8.00 | CN1CCCC(Oc2ccncc2NC(=O)c2c(N)nn3ccc(C(F)(F)F)nc23)C1 (stereo not shown) [I-O-26, 2-amino-N-(4-((1-methylpiperidin-3-yl)oxy)pyridin-3-yl)-5-(trifluoromethyl)pyrazolo[1,5-a]pyrimidine-3-carboxamide] | +++ (Compounds with a Cisplatin sensitization value of <0.02 μM are marked with “+++.”) |
| 6.00 to 8.00 | Nc1nn2ccc(C(F)(F)F)nc2c1C(=O)Nc1cnccc1OC1CCCNC1 (stereo not shown) [I-O-23, 2-amino-N-(4-(piperidin-3-yloxy)pyridin-3-yl)-5-(trifluoromethyl)pyrazolo[1,5-a]pyrimidine-3-carboxamide] | ++ (Compounds with a Cisplatin sensitization value>0.02 μM but <0.2 μM are marked with “++.”) |
| > 8.00 | Nc1nn2ccc(C(F)(F)F)nc2c1C(=O)Nc1cnccc1Oc1cccnc1 [I-O-15, 2-amino-N-(4-(pyridin-3-yloxy)pyridin-3-yl)-5-(trifluoromethyl)pyrazolo[1,5-a]pyrimidine-3-carboxamide] | +++ (Compounds with a Cisplatin sensitization value of <0.02 μM are marked with “+++.”) |
| 6.00 to 8.00 | COc1ccncc1NC(=O)c1c(N)nn2ccc(OCCN(C)C)nc12 [I-O-62, 2-amino-5-(2-(dimethylamino)ethoxy)-N-(4-methoxypyridin-3-yl)pyrazolo[1,5-a]pyrimidine-3-carboxamide] | ++ (Compounds with a Cisplatin sensitization value>0.02 μM but <0.2 μM are marked with “++.”) |
| 6.00 to 8.00 | CN(C)CCCOc1ccncc1NC(=O)c1c(N)nn2ccc(C(F)(F)F)nc12 [I-O-27, 2-amino-N-(4-(3-(dimethylamino)propoxy)pyridin-3-yl)-5-(trifluoromethyl)pyrazolo[1,5-a]pyrimidine-3-carboxamide] | ++ (Compounds with a Cisplatin sensitization value>0.02 μM but <0.2 μM are marked with “++.”) |
| 6.00 to 8.00 | Nc1nn2ccc(C(F)(F)F)nc2c1C(=O)Nc1cnccc1OC1CCNCC1 [I-O-41, 2-amino-N-(4-(piperidin-4-yloxy)pyridin-3-yl)-5-(trifluoromethyl)pyrazolo[1,5-a]pyrimidine-3-carboxamide] | ++ (Compounds with a Cisplatin sensitization value>0.02 μM but <0.2 μM are marked with “++.”) |
| 6.00 to 8.00 | Nc1nn2ccc(C(F)(F)F)nc2c1C(=O)Nc1cnccc1Oc1ccncc1 [I-O-16, 2-amino-N-(4-(pyridin-4-yloxy)pyridin-3-yl)-5-(trifluoromethyl)pyrazolo[1,5-a]pyrimidine-3-carboxamide] | + (Compounds with a Cisplatin sensitization value >0.2 μM but <5 μM are marked with “+.”) |
| 6.00 to 8.00 | CN(C)Cc1ccc(Oc2ccncc2NC(=O)c2c(N)nn3ccc(C(F)(F)F)nc23)cn1 [I-O-45, 2-amino-N-(4-((6-((dimethylamino)methyl)pyridin-3-yl)oxy)pyridin-3-yl)-5-(trifluoromethyl)pyrazolo[1,5-a]pyrimidine-3-carboxamide] | +++ (Compounds with a Cisplatin sensitization value of <0.02 μM are marked with “+++.”) |
| 6.00 to 8.00 | Nc1nn2ccc(C(F)(F)F)nc2c1C(=O)Nc1cnccc1O[C@H]1CCNC1 [I-O-21, (S)-2-amino-N-(4-(pyrrolidin-3-yloxy)pyridin-3-yl)-5-(trifluoromethyl)pyrazolo[1,5-a]pyrimidine-3-carboxamide] | ++ (Compounds with a Cisplatin sensitization value>0.02 μM but <0.2 μM are marked with “++.”) |
| 6.00 to 8.00 | Nc1nn2ccc(C(F)(F)F)nc2c1C(=O)Nc1cnccc1O[C@@H]1CCNC1 [I-O-25, (R)-2-amino-N-(4-(pyrrolidin-3-yloxy)pyridin-3-yl)-5-(trifluoromethyl)pyrazolo[1,5-a]pyrimidine-3-carboxamide] | ++ (Compounds with a Cisplatin sensitization value>0.02 μM but <0.2 μM are marked with “++.”) |
| 6.00 to 8.00 | COc1ccncc1NC(=O)c1c(N)nn2ccc(N(C)CC3CCCN3C)nc12 (stereo not shown) [I-O-73, 2-amino-N-(4-methoxypyridin-3-yl)-5-(methyl((1-methylpyrrolidin-2-yl)methyl)amino)pyrazolo[1,5-a]pyrimidine-3-carboxamide] | + (Compounds with a Cisplatin sensitization value >0.2 μM but <5 μM are marked with “+.”) |
| 6.00 to 8.00 | C=CCOCc1ccn2nc(N)c(C(=O)Nc3cnccc3OC)c2n1 [I-O-55, 5-((allyloxy)methyl)-2-amino-N-(4-methoxypyridin-3-yl)pyrazolo[1,5-a]pyrimidine-3-carboxamide] | +++ (Compounds with a Cisplatin sensitization value of <0.02 μM are marked with “+++.”) |
| 6.00 to 8.00 | COCCOc1ccncc1NC(=O)c1c(N)nn2ccc(C(F)(F)F)nc12 [I-O-8, 2-amino-N-(4-(2-methoxyethoxy)pyridin-3-yl)-5-(trifluoromethyl)pyrazolo[1,5-a]pyrimidine-3-carboxamide] | +++ (Compounds with a Cisplatin sensitization value of <0.02 μM are marked with “+++.”) |
| > 8.00 | CCOc1ccncc1NC(=O)c1c(N)nn2ccc(C(F)(F)F)nc12 [I-O-2, 2-amino-N-(4-ethoxypyridin-3-yl)-5-(trifluoromethyl)pyrazolo[1,5-a]pyrimidine-3-carboxamide] | +++ (Compounds with a Cisplatin sensitization value of <0.02 μM are marked with “+++.”) |
| 6.00 to 8.00 | Nc1nn2ccc(C(F)(F)F)nc2c1C(=O)Nc1cnccc1OC1CC2(CCN2)C1 (stereo not shown) [I-O-24, N-(4-((4r,6s)-1-azaspiro[3.3]heptan-6-yloxy)pyridin-3-yl)-2-amino-5-(trifluoromethyl)pyrazolo[1,5-a]pyrimidine-3-carboxamide] | +++ (Compounds with a Cisplatin sensitization value of <0.02 μM are marked with “+++.”) |
| 6.00 to 8.00 | COc1ccncc1NC(=O)c1c(N)nn2ccc(NCCN(C)C)nc12 [I-O-70, 2-amino-5-((2-(dimethylamino)ethyl)amino)-N-(4-methoxypyridin-3-yl)pyrazolo[1,5-a]pyrimidine-3-carboxamide] | + (Compounds with a Cisplatin sensitization value >0.2 μM but <5 μM are marked with “+.”) |
| 6.00 to 8.00 | COc1cc(Cl)ncc1NC(=O)c1c(N)nn2ccc(C(F)(F)F)nc12 [I-O-47, 2-amino-N-(6-chloro-4-methoxypyridin-3-yl)-5-(trifluoromethyl)pyrazolo[1,5-a]pyrimidine-3-carboxamide] | ++ (Compounds with a Cisplatin sensitization value>0.02 μM but <0.2 μM are marked with “++.”) |
